Assay results reported in patent US6130215A, “Piperazinylalkylthiopyrimidine derivatives, pharmaceutical compositions containing the same and a process for the preparation of the novel compounds” (Egis Gyoyszergyar RT, priority 1995, dated 2000).

Experiments:
[1] = target: T1, 5-HT2C receptor (Sus scrofa, UniProt K7GSR7); assay: 5-HT2C receptor binding ([3H]mesulergine, pig brain choroid plexus membrane preparation); details: tritiated mesulergine, 37° C., read-out: Inhibition of receptor binding of the radioactive ligand, 5-HT2C (Ki)
T1 construct: pig brain choroid plexus membrane preparation; from tissue; host or cells: pig brain choroid plexus membrane preparation
T1 sequence (K7GSR7 1-457): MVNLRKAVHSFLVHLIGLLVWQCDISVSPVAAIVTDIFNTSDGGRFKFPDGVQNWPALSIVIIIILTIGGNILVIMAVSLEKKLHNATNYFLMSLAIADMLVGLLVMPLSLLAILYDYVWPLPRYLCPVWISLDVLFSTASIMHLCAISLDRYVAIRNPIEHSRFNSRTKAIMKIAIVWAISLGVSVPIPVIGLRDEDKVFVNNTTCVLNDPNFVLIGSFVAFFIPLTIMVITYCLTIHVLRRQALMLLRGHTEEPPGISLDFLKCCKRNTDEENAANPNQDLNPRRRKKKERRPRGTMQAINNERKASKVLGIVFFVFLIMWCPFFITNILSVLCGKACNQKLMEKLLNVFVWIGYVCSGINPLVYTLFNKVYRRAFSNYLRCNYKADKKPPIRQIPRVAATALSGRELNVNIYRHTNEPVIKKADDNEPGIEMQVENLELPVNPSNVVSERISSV
Experimental: (§1) 5-HT2A and 5-HT2C receptor binding was measured according to the methods described by Leysen et al. /Mol. Pharmacol., 21, 301 (1981)/ and Pazos et al. /Eur. J. Pharmacol., 106, 539 (1985)/, respectively. 5-HT2A receptor binding was measured in rat brain frontal cortex membrane preparation using tritiated ketanserine /3-/2-(4-fluorobenzoyl)- -1-piperidinyl/ethyl-2,4-(1H,3H)-quinazoline-dione/(60-90 Ci/mmole) as ligand. 5-HT2C receptor binding was measured in pig brain choroid plexus membrane preparation using tritiated mesulergine /N'-/(8)-1,6-dimethyl-ergoline-8-yl/-N,N-dimethylsulfamide (70-85 Ci/mmole) as the ligand. Non-specific binding to 5-HT2A and 5-HT2C receptors were determined in the presence of 10 micro M cyproheptadine/4-(5H-dibenzo/a,d/cycloheptene-5-ylidene)-1-methylpiperidine/ and 1 micro M mianserine/1,2,3,4,10,14b-hexahydro-2-methyldibenzo-/c,f/pyrazino/1,2-a/azepine/, respectively. The final incubation volumes were 250 and 1000 microlitres. Samples were incubated for 15 and 30 minutes at 37° C. Incubation was stopped by adding 9 ml of ice-cold 50 mM tris(hydroxymethyl)-aminomethane hydrochloride (pH=7.7) to the reaction mixture. The samples were rapidly filtered through Whatman GF/B glass fiber filters using reduced pressure. Before use, the filters were soaked in a 0.05% poly-ethyleneimine solution for 2 to 3 hours. Radioactivity of the filters was determined by a scintillation spectrometer.

[2] = target: T2, 5-HT2A receptor (Rattus norvegicus, UniProt P14842); assay: 5-HT2A receptor binding ([3H]ketanserine, rat brain frontal cortex membrane preparation); details: tritiated ketanserine, 37° C., read-out: Inhibition of receptor binding of the radioactive ligand, 5-HT2A (Ki)
T2 construct: rat brain frontal cortex membrane preparation; from tissue; host or cells: rat brain frontal cortex membrane preparation
Experimental: as §1

[3] = target: T3, 5-HT2A receptor (Oryctolagus cuniculus, UniProt G1SYA7); assay: 5-HT2A receptor antagonistic effect: inhibition of 5-HT-evoked contractions on isolated rabbit aortic strips; format: cell-based, rabbit (New-Zealand, male, white); details: 5-HT 10^-6 M; phenoxybenzamine 10^-8 M; tranylcypramine 10^-7 M; 10 minutes incubation
T3 construct: The thoracic aorta segment after the aortic arch was removed; from tissue; host or cells: rabbit thoracic aorta, helical strips
Experimental: New-Zealand, male, white rabbits weighing 2.0 to 2.5 kg were killed by a blow on the head. The thoracic aorta segment after the aortic arch was removed and placed into a Krebs' solution (NaCl 118 mM, KCl 4.6 mM, NaHCO3 25 mM, glucose 10.5 mM, […] 1 mM, KH2PO4 1 mM, CaCl2 2.6 mM). The aorta was carefully cleaned from fat and connective tissue, and was cut into 3 mm wide and 30 mm long helical strips. Four strips were obtained from each rabbit. The strips were equilibrated at 37° C. for 60 minutes in an organ chamber filled with Krebs' solution. The strips were also oxygenated by bubbling carbogen gas (5% of carbon dioxide and 95% of oxygen) through the solution. The strips were stretched by 1 g tension.
The contractions were measured by a Hugo Sachs K-30 type strain gauge, and were registered on a Multicorder type polygraph. During the last 40 minutes of the equilibration, the MAO enzym inhibitor tranylcypramine (10^-7 M) /chemical name: (±)-trans-2-phenylcyclopropylamine/ was also added to the bath.
Any alpha-adrenergic effects of the test compounds were eliminated by 10^-8 M of phenoxybenzamine /N-(2-chloroethyl)-N-(1-methyl-2-phenoxyethyl)benzylamine/ /Clancy et al., J. Pharm. Exp. Ther., 233, 761 (1985). Testing of the serotonergic antagonistic effect was started at the 90th minute of incubation. The stability and reproducibility of the contractile response of the aortic strips to serotonin was tested by two consecutive application and wash-out procedures of 10^-6 M concentration of 5-HT, 40 minutes apart. […] 30 minutes after the second testing, a preset concentration of the test compound was added to the bath, and, after a 10 minutes incubation time, the response to 10^-6 M of 5-HT was determined in the presence of the compound to be tested.
Two different concentrations of a given compound were tested on each aortic strip by the above method. Reproducibility of the control 5-HT-evoked response was checked between testing the two concentrations of the compound.
IC50 was calculated by nonlinear curve fitting of the inhibitory effect of increasing concentrations of the test compound.

T2 sequence (P14842 whole entry): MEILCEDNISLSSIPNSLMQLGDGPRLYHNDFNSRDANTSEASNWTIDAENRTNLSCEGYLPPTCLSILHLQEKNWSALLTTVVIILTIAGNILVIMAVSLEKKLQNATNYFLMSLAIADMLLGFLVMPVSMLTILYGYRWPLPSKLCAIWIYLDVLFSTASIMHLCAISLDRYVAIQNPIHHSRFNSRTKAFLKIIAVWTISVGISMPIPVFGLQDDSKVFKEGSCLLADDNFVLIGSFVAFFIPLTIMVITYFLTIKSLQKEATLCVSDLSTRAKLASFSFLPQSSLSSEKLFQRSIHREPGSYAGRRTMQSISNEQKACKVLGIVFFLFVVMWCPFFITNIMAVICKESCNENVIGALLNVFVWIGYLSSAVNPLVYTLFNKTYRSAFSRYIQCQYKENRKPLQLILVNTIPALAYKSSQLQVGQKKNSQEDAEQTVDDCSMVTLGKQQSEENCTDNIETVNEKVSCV
T3 sequence (G1SYA7 1-469): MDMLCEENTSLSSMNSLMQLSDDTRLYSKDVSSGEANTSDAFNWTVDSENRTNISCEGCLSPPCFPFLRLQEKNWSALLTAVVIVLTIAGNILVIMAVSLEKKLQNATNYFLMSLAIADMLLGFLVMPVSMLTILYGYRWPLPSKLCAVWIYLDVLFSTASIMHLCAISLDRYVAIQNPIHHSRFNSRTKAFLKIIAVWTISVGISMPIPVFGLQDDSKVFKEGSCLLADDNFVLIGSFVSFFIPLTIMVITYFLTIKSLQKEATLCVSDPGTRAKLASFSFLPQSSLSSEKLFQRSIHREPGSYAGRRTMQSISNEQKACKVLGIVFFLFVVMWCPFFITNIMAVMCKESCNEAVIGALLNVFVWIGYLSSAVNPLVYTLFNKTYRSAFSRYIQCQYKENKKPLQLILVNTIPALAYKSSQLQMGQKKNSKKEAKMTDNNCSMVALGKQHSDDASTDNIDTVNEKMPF

Row | Compound | Ki [1] [µM] | Ki [2] [µM] | IC50 [3] [µM]
1 | COc1ccc(CN2CCN(CCSc3nc(N)c(Cc4cc(OC)c(OC)c(OC)c4)c(N)n3)CC2)cc1 [Example 66, 2-[2-/4-(4-Methoxybenzyl)-1-piperazinyl/-ethylthio]-4,6-diamino-5-(3,4,5-trimethoxy-benzyl)pyrimidine] | > 0.1 | 0.061 | –
2 | COc1cccc(CN2CCN(CCSc3nc(N)c(Cc4ccccc4OC)c(N)n3)CC2)c1 [Example 31, 2-[2-/4-(3-Methoxybenzyl)-1-piperazinyl/-ethylthio]-4,6-diamino-5-(2-methoxybenzyl)-pyrimidine] | 0.021 | > 0.1 | 0.73
3 | CN(C)c1ccc(Cc2c(N)nc(SCCN3CCN(Cc4ccccc4Cl)CC3)nc2N)cc1 [Example 101, 2-[2-/4-(2-Chlorobenzyl)-1-piperazinyl/-ethylthio]-4,6-diamino-5-(4-dimethylamino-benzyl)pyrimidine] | 0.024 | 0.016 | –
4 | Cc1ccc(CN2CCN(CCSc3nc(N)c(Cc4ccccc4Cl)c(N)n3)CC2)cc1 [Example 40, 2-[2-/4-(4-Methylbenzyl)-1-piperazinyl/-ethylthio]-4,6-diamino-5-(2-chlorobenzyl)-pyrimidine] | > 0.1 | 0.021 | –
5 | COc1cc(Cc2c(N)nc(SCCN3CCN(Cc4cccc(C(F)(F)F)c4)CC3)nc2N)cc(OC)c1OC [Example 69, 2-[2-/4-(3-Trifluoromethylbenzyl)-1-piperazinyl/ethylthio]-4,6-diamino-5-(3,4,5-trimethoxybenzyl)pyrimidine] | 0.026 | 0.038 | 0.096
6 | Nc1nc(SCCN2CCN(Cc3ccccc3Cl)CC2)nc(N)c1Cc1ccc(Cl)cc1 [Example 47, 2-[2-/4-(2-Chlorobenzyl)-1-piperazinyl/ethylthio]-4,6-diamino-5-(4-chlorobenzyl)-pyrimidine] | 0.033 | > 0.1 | –
7 | COc1ccc(Cc2c(N)nc(SCCN3CCN(Cc4ccccc4C)CC3)nc2N)cc1 [Example 24, 2-[2-/4-(2-Methylbenzyl)-1-piperazinyl/-ethylthio]-4,6-diamino-5-(4-methoxybenzyl)-pyrimidine] | 0.022 | 0.018 | 0.24
8 | Nc1nc(SCCN2CCN(Cc3ccc([N+](=O)[O-])cc3)CC2)nc(N)c1Cc1ccccc1 [Example 14, 2-[2-/4-(4-Nitrobenzyl)-1-piperazinyl/-ethylthio]-4,6-diamino-5-benzylpyrimidine] | > 0.1 | 0.078 | 6
9 | CN(C)c1ccc(Cc2c(N)nc(SCCN3CCN(Cc4ccccc4F)CC3)nc2N)cc1 [Example 53, 2-[2-/4-(2-Fluorobenzyl)-1-piperazinyl/-ethylthio]-4,6-diamino-5-(4-dimethylamino-benzyl)pyrimidine] | > 0.1 | 0.015 | 0.47
10 | COc1cccc(CN2CCN(CCSc3nc(N)c(Cc4ccccc4)c(N)n3)CC2)c1 [Example 12, 2-[2-/4-(3-Methdxybenzyl)-1-piperazinyl/-ethylthio]-4,6-diamino-5-benzylpyrimidine] | 0.047 | > 0.1 | –
11 | Nc1nc(SCCN2CCN(Cc3ccc([N+](=O)[O-])cc3)CC2)nc(N)c1Cc1ccccc1O [Example 19, 2-[2-/4-(4-Nitrobenzyl)-1-piperazinyl/-ethylthio]-4,6-diamino-5-(2-hydroxybenzyl)-pyrimidine] | > 0.1 | 0.048 | –
12 | Nc1nc(SCCN2CCN(Cc3cccc(C(F)(F)F)c3)CC2)nc(N)c1Cc1ccc(F)cc1 [Example 21, 2-[2-/4-(3-Trifluoromethylbenzyl)-1-piperazinyl/ethylthio]4,6-diamino-5-(4-fluorobenzyl)pyrimidine] | 0.039 | > 0.1 | –
13 | COc1ccccc1Cc1c(N)nc(SCCN2CCN(Cc3ccc([N+](=O)[O-])cc3)CC2)nc1N [Example 34, 2-[2-/4-(4-Nitrobenzyl)-1-piperazinyl/-ethylthio]-4,6-diamino-5-(2-methoxy-benzyl)pyrimidine] | > 0.1 | 0.071 | –
14 | COc1ccc(Cc2c(N)nc(SCCN3CCN(Cc4cccc(OC)c4)CC3)nc2N)cc1 [Example 28, 2-[2-/4-(3-Methoxybenzyl)-1-piperazinyl/-ethylthio]-4,6-diamino-5-(4-methoxybenzyl)-pyrimidine] | 0.05 | > 0.1 | –
15 | COc1cccc(CN2CCN(CCSc3nc(N)c(Cc4cc(OC)c(OC)c(OC)c4)c(N)n3)CC2)c1 [Example 65, 2-[2-/4-(3-Methoxybenzyl)-1-piperazinyl/-ethylthio]-4,6-diamino-5-(3,4,5-trimethoxy-benzyl)pyrimidine] | 0.042 | 0.034 | 0.17
16 | COc1cc(Cc2c(N)nc(SCCN3CCN(Cc4ccccc4Cl)CC3)nc2N)cc(OC)c1OC [Example 67, 2-[2-/4-(2-Chlorobenzyl)-1-piperazinyl/-ethylthio]-4,6-diamino-5-(3,4,5-trimethoxy-benzyl)pyrimidine] | 0.0086 | 0.0046 | 0.039
17 | Cc1ccccc1CN1CCN(CCSc2nc(N)c(Cc3ccccc3Cl)c(N)n2)CC1 [Example 39, 2-[2-/4-(2-Methylbenzyl)-1-piperazinyl/-ethylthio]-4,6-diamino-5-(2-chloro-benzyl)pyrimidine] | 0.027 | – | 0.3
18 | COc1ccc(Cc2c(N)nc(SCCN3CCN(Cc4ccccc4C#N)CC3)nc2N)cc1 [Example 27, 2-[2-/4-(2-Cyanobenzyl)-1-piperazinyl/-ethylthio]-4,6-diamino-5-(4-methoxybenzyl)-pyrimidine] | – | – | 0.9
19 | CN(C)c1ccc(Cc2c(N)nc(SCCN3CCN(Cc4ccccc4C#N)CC3)nc2N)cc1 [Example 54, 2-[2-/4-(2-Cyanobenzyl)-1-piperazinyl/-ethylthio]-4,6-diamino-5-(4-dimethylamino-benzyl)pyrimidine] | – | – | 0.57
20 | COc1ccc(Cc2c(N)nc(SCCN3CCN(Cc4cccc(C(F)(F)F)c4)CC3)nc2N)cc1 [Example 35, 2-[2-/4-(3-Trifluoromethylbenzyl)-1-piperazinyl/-ethyl-thio]-4,6-diamino-5-(4-methoxybenzyl)pyrimidine] | 0.069 | > 0.1 | –
21 | COc1ccccc1Cc1c(N)nc(SCCN2CCN(Cc3cccc(C(F)(F)F)c3)CC2)nc1N [Example 36, 2-[2-/4-(3-Trifluoromethylbenzyl)-1-piperazinyl/ethylthio]-4,6-diamino-5-(2-methoxybenzyl)pyrimidine] | 0.018 | > 0.1 | –
